Laboratory results taken from ChEMBL document CHEMBL1649140, “Accelerated metabolism of voriconazole and its partial reversal by cimetidine” (Antimicrob Agents Chemother, 2009).
Converted amounts (≈) assume the structure as drawn.

Key:
Aspergillus ustus = assay: Antifungal activity against Aspergillus ustus; format: functional
[1] = Cmin in patient with invasive pulmonary aspergillosis at 9.2 mg/kg, iv administered every 12 hrs measured after 8 days; format: ADME, organism-based; parameters: dose 9.2 mg/kg, route intravenous; details: human, in vivo, read-out: Cmin

C[C@@H](c1ncncc1F)[C@](O)(Cn1cncn1)c1ccc(F)cc1F [VORICONAZOLE]
MIC (Aspergillus ustus): 4 µg/mL (≈ 11.5 µM) | concentration at 192 h [1]: 1170 ng/mL
